Source: patent US9238656B2, “Imidazo[4,5-b]pyridine derivatives as ALK and JAK modulators for the treatment of proliferative disorders” (priority 2012, dated 2016)
One block for each compound: values may come before it.

Tests used:
[1] = biological target: baculovirus-expressed ALK (Homo sapiens, UniProt Q9UM73); test: ALK kinase inhibition, TRF/ELISA; assay type: biochemical; conditions: read-out: ALK Potency
Procedure, shortened: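 Eu-PT66 anti-phosphotyrosine TRF read-out measured phosphorylation of plate-bound GST-PLC-γ (coated at 10 μg/mL). The phosphorylation was driven by 30 ng/mL ALK for 15 minutes at 37° C.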

[2] = biological target: baculovirus-expressed JAK2 kinase (Homo sapiens, UniProt O60674); test: biochemical; conditions: 0.2 μM ATP; read-out: JAK2 Potency
Sequence of baculovirus-expressed JAK2 kinase (O60674 whole entry): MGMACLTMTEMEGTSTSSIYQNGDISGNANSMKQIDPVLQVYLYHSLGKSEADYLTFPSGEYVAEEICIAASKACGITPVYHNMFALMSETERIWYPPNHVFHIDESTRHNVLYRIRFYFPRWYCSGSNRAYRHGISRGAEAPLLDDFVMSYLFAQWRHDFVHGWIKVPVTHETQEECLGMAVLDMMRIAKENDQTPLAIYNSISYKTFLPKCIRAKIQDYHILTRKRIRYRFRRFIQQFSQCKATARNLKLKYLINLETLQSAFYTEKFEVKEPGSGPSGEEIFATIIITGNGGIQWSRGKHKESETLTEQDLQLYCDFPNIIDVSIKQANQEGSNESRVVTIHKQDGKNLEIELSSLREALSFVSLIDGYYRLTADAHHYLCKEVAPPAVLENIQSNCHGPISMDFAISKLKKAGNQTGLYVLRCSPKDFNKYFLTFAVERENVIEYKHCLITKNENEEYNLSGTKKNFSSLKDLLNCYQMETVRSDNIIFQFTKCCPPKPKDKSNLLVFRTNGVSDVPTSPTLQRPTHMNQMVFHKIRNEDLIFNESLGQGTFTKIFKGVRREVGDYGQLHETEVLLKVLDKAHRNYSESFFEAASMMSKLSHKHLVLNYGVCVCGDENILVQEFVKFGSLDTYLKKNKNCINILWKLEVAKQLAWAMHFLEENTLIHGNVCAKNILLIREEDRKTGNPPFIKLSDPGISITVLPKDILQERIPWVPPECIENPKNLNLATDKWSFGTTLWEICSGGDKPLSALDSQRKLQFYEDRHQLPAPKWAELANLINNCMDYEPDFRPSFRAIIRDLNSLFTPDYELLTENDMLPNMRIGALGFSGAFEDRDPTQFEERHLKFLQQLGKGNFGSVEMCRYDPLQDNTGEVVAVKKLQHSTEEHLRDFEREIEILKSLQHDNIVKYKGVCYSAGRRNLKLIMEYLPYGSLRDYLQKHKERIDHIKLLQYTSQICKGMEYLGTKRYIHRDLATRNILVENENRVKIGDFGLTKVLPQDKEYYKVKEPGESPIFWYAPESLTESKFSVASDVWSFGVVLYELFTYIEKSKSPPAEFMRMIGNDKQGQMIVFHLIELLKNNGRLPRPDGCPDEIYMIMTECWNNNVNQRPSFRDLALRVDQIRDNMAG
Procedure, shortened: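 IC50 derived by variable-slope sigmoidal fit of percent inhibition against log compound concentration. Baculovirus-expressed JAK2 (15 ng/mL) phosphorylated a plate-bound biotinylated 15-mer peptide for 20 min at room temperature; detection by time-resolved fluorescence.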

Sequence of baculovirus-expressed ALK (Q9UM73 19-1620): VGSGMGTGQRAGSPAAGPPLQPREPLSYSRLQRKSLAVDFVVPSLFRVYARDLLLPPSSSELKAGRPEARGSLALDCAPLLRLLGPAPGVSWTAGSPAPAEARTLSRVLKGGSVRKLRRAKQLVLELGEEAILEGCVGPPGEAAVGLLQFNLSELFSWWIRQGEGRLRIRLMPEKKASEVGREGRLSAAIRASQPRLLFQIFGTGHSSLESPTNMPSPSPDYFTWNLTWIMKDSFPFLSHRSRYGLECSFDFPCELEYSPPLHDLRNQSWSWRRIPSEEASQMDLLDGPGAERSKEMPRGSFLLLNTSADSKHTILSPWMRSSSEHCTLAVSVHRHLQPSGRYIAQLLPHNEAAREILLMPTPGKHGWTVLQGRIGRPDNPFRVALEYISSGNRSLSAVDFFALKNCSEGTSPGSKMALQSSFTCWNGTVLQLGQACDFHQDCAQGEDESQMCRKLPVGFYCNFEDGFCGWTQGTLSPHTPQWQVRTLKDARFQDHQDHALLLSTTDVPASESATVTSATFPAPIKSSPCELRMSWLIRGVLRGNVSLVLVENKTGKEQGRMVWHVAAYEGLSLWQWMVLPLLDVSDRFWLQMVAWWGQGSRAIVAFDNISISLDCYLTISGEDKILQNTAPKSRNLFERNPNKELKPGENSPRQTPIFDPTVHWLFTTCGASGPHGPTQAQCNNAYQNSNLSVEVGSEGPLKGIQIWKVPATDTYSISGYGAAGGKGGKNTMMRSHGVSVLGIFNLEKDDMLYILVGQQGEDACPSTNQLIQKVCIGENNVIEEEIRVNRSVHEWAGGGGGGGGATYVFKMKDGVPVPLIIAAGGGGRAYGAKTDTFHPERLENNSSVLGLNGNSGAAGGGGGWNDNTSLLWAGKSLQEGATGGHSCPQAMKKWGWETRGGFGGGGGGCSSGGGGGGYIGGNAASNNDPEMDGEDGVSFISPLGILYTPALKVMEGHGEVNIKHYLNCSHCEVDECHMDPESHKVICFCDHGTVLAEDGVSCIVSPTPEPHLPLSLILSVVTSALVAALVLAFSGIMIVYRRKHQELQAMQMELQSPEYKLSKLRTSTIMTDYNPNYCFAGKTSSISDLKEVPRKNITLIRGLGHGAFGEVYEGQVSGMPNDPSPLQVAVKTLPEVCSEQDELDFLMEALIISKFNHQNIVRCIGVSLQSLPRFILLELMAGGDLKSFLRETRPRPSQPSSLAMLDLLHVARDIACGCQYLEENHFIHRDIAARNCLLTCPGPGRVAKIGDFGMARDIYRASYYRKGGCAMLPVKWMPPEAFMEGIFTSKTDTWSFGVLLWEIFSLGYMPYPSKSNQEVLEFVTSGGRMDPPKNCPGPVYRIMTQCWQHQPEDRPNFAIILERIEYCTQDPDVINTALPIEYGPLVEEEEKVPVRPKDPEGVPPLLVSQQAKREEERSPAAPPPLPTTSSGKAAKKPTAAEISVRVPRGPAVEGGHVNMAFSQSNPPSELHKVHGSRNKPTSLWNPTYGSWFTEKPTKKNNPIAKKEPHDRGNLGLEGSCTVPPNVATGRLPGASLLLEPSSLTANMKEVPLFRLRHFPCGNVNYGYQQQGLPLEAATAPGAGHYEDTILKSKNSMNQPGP

Structure (SMILES): CC(=O)N1CCC(n2cc(-c3nc4c(N[C@H]5[C@@H](C(N)=O)[C@@H]6C=C[C@H]5C6)c(Cl)cnc4[nH]3)cn2)CC1 [Compound LXI, (1S,2S,3R,4R)-3-{2-[1-(1-Acetyl-piperidin-4-yl)-1H-pyrazol-4-yl]-6-chloro-3H-imidazo[4,5-b]pyridine-7-ylamino}-bicyclo[2.2.1]hept-5-ene-2-carboxylic acid amide]
IC50 [1]: 100 to 1000 nM
IC50 [2]: < 100 nM

Structure (SMILES): Cc1cc(N2CCOCC2)ccc1-c1nc2c(N[C@H]3[C@@H](C(N)=O)[C@@H]4C=C[C@H]3C4)c(Br)cnc2[nH]1 [Compound CXXX, (1S,2S,3R,4R)-3-[6-Bromo-2-(2-methyl-4-morpholin-4-yl-phenyl)-3H-imidazo[4,5-b]pyridin-7-ylamino]-bicyclo[2.2.1]hept-5-ene-2-carboxylic acid amide]
IC50 [1]: < 100 nM
IC50 [2]: < 100 nM

Structure (SMILES): NC(=O)[C@@H]1[C@H](Nc2c(Cl)cnc3[nH]c(-c4ccccc4F)nc23)[C@H]2C=C[C@@H]1C2 [Compound CXXVII, (1S,2S,3R,4R)-3-[6-Chloro-2-(2-fluoro-phenyl)-3H-imidazo[4,5-b]pyridin-7-ylamino]-bicyclo[2.2.1]hept-5-ene-2-carboxylic acid amide]
IC50 [1]: 100 to 1000 nM
IC50 [2]: < 100 nM

Structure (SMILES): COc1ccccc1Nc1nc2c(N[C@H]3[C@@H](C(N)=O)[C@@H]4C=C[C@H]3C4)c(Cl)cnc2[nH]1 [Compound LXVIII, (1S,2S,3R,4R)-3-[6-Chloro-2-(2-methoxy-phenylamino)-3H-imidazo[4,5-b]pyridine-7-ylamino]-bicyclo[2.2.1]hept-5-ene-2-carboxylic acid amide]
IC50 [1]: 100 to 1000 nM
IC50 [2]: < 100 nM

Structure (SMILES): NC(=O)[C@@H]1[C@H](Nc2c(Br)cnc3[nH]c(-c4ccc(Cl)cc4)nc23)[C@H]2C=C[C@@H]1C2 [Compound CXLIII, (1S,2S,3R,4R)-3-[6-Bromo-2-(4-chloro-phenyl)-3H-imidazo[4,5-b]pyridin-7-ylamino]-bicyclo[2.2.1]hept-5-ene-2-carboxylic acid amide]
IC50 [1]: 100 to 1000 nM
IC50 [2]: < 100 nM

Structure (SMILES): NC(=O)[C@@H]1[C@H](Nc2c(Cl)cnc3[nH]c(-c4sc(N5CCOCC5)nc4Cl)nc23)[C@H]2C=C[C@@H]1C2 [Compound CLX, (1S,2S,3R,4R)-3-[6-Chloro-2-(4-chloro-2-morpholin-4-yl-thiazol-5-yl)-3H-imidazo[4,5-b]pyridin-7-ylamino]-bicyclo[2.2.1]hept-5-ene-2-carboxylic acid amide]
IC50 [1]: < 100 nM
IC50 [2]: < 100 nM

Structure (SMILES): CN1CCN(c2nc(Cl)c(-c3nc4c(N[C@H]5[C@@H](C(N)=O)[C@@H]6C=C[C@H]5C6)c(Cl)cnc4[nH]3)s2)CC1 [Compound CCXII, (1S,2S,3R,4R)-3-(6-chloro-2-(4-chloro-2-(4-methylpiperazin-1-yl)thiazol-5-yl)-3H-imidazo[4,5-b]pyridin-7-ylamino)bicyclo[2.2.1]hept-5-ene-2-carboxamide]
IC50 [1]: < 100 nM
IC50 [2]: < 100 nM

Structure (SMILES): COc1ccncc1-c1nc2c(N[C@H]3[C@@H](C(N)=O)[C@@H]4C=C[C@H]3C4)c(Cl)cnc2[nH]1 [Compound XXXV, (1S,2S,3R,4R)-3-[6-Chloro-2-(4-methoxy-pyridin-3-yl)-3H-imidazo[4,5-b]pyridine-7-ylamino]-bicyclo[2.2.1]hept-5-ene-2-carboxylic acid amide]
IC50 [1]: 100 to 1000 nM
IC50 [2]: 100 to 1000 nM

Structure (SMILES): NC(=O)[C@@H]1[C@H](Nc2c(Cl)cnc3[nH]c(-c4ccc(OCC(=O)O)cc4)nc23)[C@H]2C=C[C@@H]1C2 [Compound CCXLVI, 2-(4-(7-((1R,2R,3S,4S)-3-carbamoylbicyclo[2.2.1]hept-5-en-2-ylamino)-6-chloro-3H-imidazo[4,5-b]pyridin-2-yl)phenoxy)acetic acid]
IC50 [1]: 100 to 1000 nM
IC50 [2]: < 100 nM

Continued, values first:

IC50 [1]: < 100 nM
IC50 [2]: 1000 to 10000 nM
Structure (SMILES): COc1cc(CN2CCN(C)CC2)ccc1-c1nc2c(N[C@@H]3CCCC[C@H]3NS(C)(=O)=O)c(Cl)cnc2[nH]1 [Compound LXXI, N-((1R,2R)-2-{6-Chloro-2-[2-methoxy-4-(4-methyl-piperazin-1-ylmethyl)-phenyl]-3H-imidazo[4,5-b]pyridine-7-ylamino}-cyclohexyl)-methanesulfonamide]

IC50 [1]: 100 to 1000 nM
IC50 [2]: < 100 nM
Structure (SMILES): NC(=O)[C@@H]1[C@H](Nc2c(Br)cnc3[nH]c(-c4ccc(F)cc4)nc23)[C@H]2C=C[C@@H]1C2 [Compound CXXXIII, (1S,2S,3R,4R)-3-[6-Bromo-2-(4-fluoro-phenyl)-3H-imidazo[4,5-b]pyridin-7-ylamino]-bicyclo[2.2.1]hept-5-ene-2-carboxylic acid amide]

IC50 [1]: < 100 nM
IC50 [2]: < 100 nM
Structure (SMILES): NC(=O)[C@@H]1[C@H](Nc2c(Br)cnc3[nH]c(-c4sc(N5CC[C@@H](O)C5)nc4Cl)nc23)[C@H]2C=C[C@@H]1C2 [Compound CLXXI, (1S,2S,3R,4R)-3-{6-Bromo-2-[4-chloro-2-((R)-3-hydroxy-pyrrolidin-1-yl)-thiazol-5-yl]-3H-imidazo[4,5-b]pyridin-7-ylamino}-bicyclo[2.2.1]hept-5-ene-2-carboxylic acid amide]

IC50 [1]: < 100 nM
IC50 [2]: < 100 nM
Structure (SMILES): CC(O)CN1CCN(C(=O)COc2ccc(-c3nc4c(N[C@H]5[C@@H](C(N)=O)[C@@H]6C=C[C@H]5C6)c(Cl)cnc4[nH]3)cc2)CC1 (stereo partly drawn) [Compound CCXLII, (1S,2S,3R,4R)-3-(6-chloro-2-(4-(2-(4-(2-hydroxypropyl)piperazin-1-yl)-2-oxoethoxy)phenyl)-3H-imidazo[4,5-b]pyridin-7-ylamino)bicyclo[2.2.1]hept-5-ene-2-carboxamide]

IC50 [1]: 100 to 1000 nM
IC50 [2]: 1000 to 10000 nM
Structure (SMILES): CC(C)NC(=O)[C@@H]1[C@H](Nc2c(Cl)cnc3[nH]c(-c4sc(N5CCCC5)nc4Cl)nc23)[C@H]2C=C[C@@H]1C2 [Compound CLXV, (1S,2S,3R,4R)-3-[6-Chloro-2-(4-chloro-2-pyrrolidin-1-yl-thiazol-5-yl)-3H-imidazo[4,5-b]pyridin-7-ylamino]-bicyclo[2.2.1]hept-5-ene-2-carboxylic acid isopropylamide]

IC50 [1]: < 100 nM
IC50 [2]: < 100 nM
Structure (SMILES): CN1CCN(CCOc2ccc(-c3nc4c(N[C@H]5[C@@H](C(N)=O)[C@@H]6C=C[C@H]5C6)c(Cl)cnc4[nH]3)cc2)CC1 [Compound CCL, (1S,2S,3R,4R)-3-(6-chloro-2-(4-(2-(4-methylpiperazin-1-yl)ethoxy)phenyl)-3H-imidazo[4,5-b]pyridin-7-ylamino)bicyclo[2.2.1]hept-5-ene-2-carboxamide]

IC50 [1]: < 100 nM
IC50 [2]: < 100 nM
Structure (SMILES): NC(=O)[C@@H]1[C@H](Nc2c(Br)cnc3[nH]c(-c4sc(N5CCOCC5)nc4Cl)nc23)[C@H]2C=C[C@@H]1C2 [Compound CLXI, (1S,2S,3R,4R)-3-[6-Bromo-2-(4-chloro-2-morpholin-4-yl-thiazol-5-yl)-3H-imidazo[4,5-b]pyridin-7-ylamino]-bicyclo[2.2.1]hept-5-ene-2-carboxylic acid amide]

IC50 [1]: < 100 nM
IC50 [2]: < 100 nM
Structure (SMILES): CN1CCN(CCOc2ccc(-c3nc4c(N[C@H]5[C@@H](C(=O)N(C)C)[C@@H]6C=C[C@H]5C6)c(Cl)cnc4[nH]3)cc2)CC1 [Compound CLXXV, (1S,2S,3R,4R)-3-(6-Chloro-2-{4-[2-(4-methyl-piperazin-1-yl)-ethoxy]-phenyl}-3H-imidazo[4,5-b]pyridin-7-ylamino)-bicyclo[2.2.1]hept-5-ene-2-carboxylic acid dimethylamide]
